# From patent US20250009727A1, “WATER-SOLUBLE SALTS OF DNA BINDING AGENTS” (BOARD OF REGENTS, THE UNIVERSITY OF TEXAS SYSTEM, priority 2021, published 2025)
# Legend:
# [1] = Solubility in water and 5% dextrose at room temperature; type: physicochemical
# Protocol: To improve solubility and develop IV injectable formulation, different salts of WP1244 were prepared.
# ependymoma cell lines = assay: In vitro cytotoxicity in ependymoma cell lines; type: cell-based
# Source text: (§1) FIG. 3—In vitro efficacy of WP1874 in ependymoma, normal kidney, glioblastoma, and medulloblastoma cell lines.
# [2] = tested on: glioblastoma multiforme (GBM) cell lines; assay: In vitro cytotoxicity in glioblastoma multiforme (GBM) cell lines; type: cell-based
# Source text: as §1
# CNS uptake of WP1244 = details: in vivo
# [3] = tested on: orthotopic U87 model of GBM; assay: In vivo efficacy in orthotopic U87 GBM model; details: nude athymic mice, intracranial U87; three doses at 1 and 5 mg/kg IP from day 10
# Protocol: FIG. 2—In vivo efficacy of WP1244 in orthotopic U87 GBM model. Eighteen nude athymic mice were implanted intracranially with 0.5 mln U87 GBM cells. Animals were randomized into three experimental groups (n=6). The treatment was initiated on day 10 and consisted of three doses ow WP1244 at 1 and 5 mg/kg given IP.
smiles,measurement,setting,value
COc1cccc2c1C(=O)c1c(O)c3c(c(O)c1C2=O)C[C@](O)(C(C)=O)C[C@H]3OC1CC(NCc2ccc(NC(=O)c3cc(NC(=O)c4cc(NC(=O)c5ccccn5)cn4C)cn3C)cc2)C(O)C(C)O1 (stereo partly shown) [WP1244],Solubility in 5% Dextrose,"[1]; 5% dextrose, room temperature",Lower than 0.25 mg/mL
same,Solubility (in words),[1]; salt forms compared for IV injectable formulation,poor solubility
same,Solubility in H2O,"[1]; water, room temperature",Lower than 0.25 mg/mL
same,Cytotoxicity,ependymoma cell lines,picomolar to low nanomolar
same,Cytotoxicity,[2],picomolar to low nanomolar
same,CNS uptake,CNS uptake of WP1244,especially high CNS uptake
same,In vivo activity in orthotopic U87 GBM model,[3],demonstrated in vivo activity
